{
  "source": "patent US20020168365A1",
  "about": "“Method for modulating granzyme B uptake and for identifying modulators thereof” (priority 2000, published 2002)",
  "key": {"CI-MPR^+ cells": {"system": "CI-MPR^+ cells", "test": "TUNEL and annexin V apoptosis assays with grB and AD", "assay_type": "cell-based, murine L cells transfected with human CI-MPR", "description": "(§1) For the in vitro killing assays, 10 pfu per cell of replication-deficient adenovirus (AD) were added subsequent to grB addition. Analysis of DNA fragmentation by TUNEL analysis has been described previously (Heibein et al., 1999). TUNEL materials (Roche Diagnostics) were used as per the manufacturer's instructions. Phosphatidylserine externalization was measured as previously described (Heibein et al., 1999) using annexin V-FITC (PharMingen). Percent specific TUNEL/annexin V positive cells was calculated as: [(% positive labeling cells with grB and AD-% positive labeling cells without grB and AD)/(100-% positive labeling cells without grB and AD)]×100."}, "MPR^− cells": {"system": "MPR^− cells", "test": "TUNEL and annexin V apoptosis assays with grB and AD", "assay_type": "cell-based, murine", "settings": "100 ng/ml grB and AD, 3 hr", "description": "as §1"}, "wild-type L cells": {"system": "wild-type L cells", "test": "TUNEL and annexin V apoptosis assays with grB and AD", "assay_type": "cell-based, murine", "description": "as §1"}, "[1]": {"system": "L cells and the MPR-transfected L cell lines", "test": "GrB binding assay (flow cytometry)", "parameters": "species or system murine", "settings": "grB treated with alkaline phosphatase in the absence of phosphate", "description": "(§2) Cells (1-2×10^5) were washed twice and resuspended in buffer before the addition of grB-biotin or -OG in a final volume of 20 μl for a 30-60 min incubation and washed again twice. In the case of grB-biotin, cells were then incubated with streptavidin-cychrome for 20 min and washed twice. Unless otherwise indicated, ˜25 ng grB-biotin or -OG was used to label cells. All steps of the assay were carried out at 4° C. to prevent intracellular uptake of grB. PBS/0.1% BSA buffer was used throughout the procedure. In some cases, results are presented as the relative MFI, which represents the MFI of the grB-labeled population minus the MFI of the unlabeled population.\n(§3) GrB was treated for 1 hr at 37° C. in a phosphate-free (saline) or a high-phosphate (64.5 mM Na2HPO4.7H2O, 21 mM KH2PO4) buffer with calf intestinal alkaline phosphatase (1-10 U), 20 nM of the 37 kDa catalytic subunit of recombinant protein phosphatase-1 (Bagu et al, 1997), or with vehicle control. Cells were then incubated with the treated grB at 4° C. for 30-60 min. For the TUNEL or annexin V assays, cells were then washed twice before incubation at 37° C. with AD."}, "Jurkat cells [2]": {"system": "Jurkat cells", "test": "GrB binding assay (flow cytometry, labeled grB at 4° C.)", "parameters": "species or system human", "description": "as §2, §3\n(§4) M6P and various other monosaccharides at different concentrations were added to cells for 15 min at 4° C. before the addition of labeled grB, or at room temperature before the addition of grB and AD.\n(§5) GrB was incubated with sCI-MPR at various concentrations in PBS/0.1% BSA for 30 min at 4° C. Subsequently, cells were incubated with grB/sCI-MPR for 30-60 min at 4° C. and washed twice, before analysis of binding, or before the addition of AD for TUNEL and annexin V analysis."}, "Jurkat cells [3]": {"system": "Jurkat cells", "test": "TUNEL and annexin V apoptosis assays with grB and AD", "assay_type": "cell-based, human", "description": "as §3, §4, §5, §1\nCells were resuspended at 10^6 cells/ml in 0.1% BSA/DMEM. Adenovirus (10 PFU/cell) and granzyme B (grB) were added directly to the cell suspension. Cells were incubated at 37° C. for 3 h. For staurosporine killing, cells were resuspended at 10^6 cells/ml in their normal growth medium and staurosporine (2.5 μM) was added directly to the cell suspension. Cells were incubated at 37° C. for 2, 4 and 8 h.\n(§6) DNA fragmentation was monitored by flow cytometric analysis via the terminal deoxynucleotidyltransferase-mediated dUTP-biotin nick end labeling (TUNEL) method. Flow cytometric analysis was performed on a Becton Dickinson FACScanθ flow cytometer equipped with an argon-ion laser with 15 mW of excitation at 488 nm. Emission wavelengths were detected through the FL1 channel. Data were acquired on 10,000 cells per sample with light scatter signals at linear gain and fluorescence signals at logarithmic gain. Percent specific TUNEL positive cells was calculated as follows: [(% positive labeling cells with grB and AD−% positive labeling cells without grB and AD)/(AD−% positive labeling cells without grB and AD)]×100.\nas §6, with “Phosphatidylserine externalization” for “DNA fragmentation”, “monitored using the ApoAlertθ annexin V apoptosis kit (Clontech) according to the protocol provided” for “monitored”, “by” for “by flow cytometric analysis via”, “manufacturer.” for “terminal deoxynucleotidyltransferase-mediated dUTP-biotin nick end labeling (TUNEL) method.”, “Annexin V” for “TUNEL”"}, "[4]": {"settings": "at later times (data not shown)"}, "[5]": {"settings": "at the time-point of the assay (3 hr)"}, "[6]": {"settings": "grB treated with catalytic subunit of protein phosphatase-1 (data not shown)"}},
  "data": [
    {"substance": "grB: Human serine proteinase granzyme B purified from the cytolytic granules of YT-Indy cells", "values": [
      {"measurement": "TUNEL and annexin V positive cells", "setting": "CI-MPR^+ cells; [4]", "result": "~100", "unit": "%"},
      {"measurement": "TUNEL and annexin V positive cells", "setting": "CI-MPR^+ cells; [5]", "result": "about 30%"},
      {"measurement": "grB and AD-induced DNA fragmentation", "setting": "MPR^− cells", "result": "relatively resistant"},
      {"measurement": "TUNEL and annexin V positive cells", "setting": "wild-type L cells; [4]", "result": "~100", "unit": "%"},
      {"measurement": "TUNEL and annexin V positive cells", "setting": "wild-type L cells; [5]", "result": "about 30%"},
      {"measurement": "binding to L cells and the MPR-transfected L cell lines", "setting": "[1]", "result": "dramatic decrease in binding"},
      {"measurement": "ability to bind Jurkat cells", "setting": "Jurkat cells [2]; [6]", "result": "did not lose"},
      {"measurement": "ability to bind Jurkat cells", "setting": "Jurkat cells [2]; grB-biotin treated with alkaline phosphatase in phosphate-free buffer", "result": "marked reduction"},
      {"measurement": "percentage of TUNEL/annexin V positive cells", "setting": "Jurkat cells [3]; Jurkat cells incubated with only grB (no AD)", "result": "under 8%"},
      {"measurement": "TUNEL and annexin V labeling", "setting": "Jurkat cells [3]; Jurkat cells, 3 hr, varying concentrations of grB and AD (Example 2)", "result": "significant TUNEL and annexin V labeling"},
      {"measurement": "ability to induce apoptosis of Jurkat cells", "setting": "Jurkat cells [3]; [6]", "result": "did not lose"},
      {"measurement": "concentration sufficient to elicit effective Jurkat cell killing", "setting": "Jurkat cells [3]; granule-purified grB with AD (FIG. 3C)", "result": "less than 1 ng/ml"}
    ]}
  ]
}
